How the values were obtained:
Assay type in all cases: cell-based
[1] = test system: 314-member panel of human G protein-coupled receptors (GPCRs); test: PRESTO-Tango screen of 314-member human GPCR panel; conditions: 100 µM, HTLA cells
Method: The PRESTO-Tango analyses were performed as previously published. Briefly, HTLA cells, a HEK293 cell line that stably expresses β-arrestin-TEV and tTA-Luciferase (a kind gift from Gilad Barnea, Brown University), were plated in 96-well tissue culture plates (Eppendorf) in DMEM containing 10% FBS and 1% Penicillin/Streptomycin. One day after plating (after reaching approximately 90% confluence), 200 ng per well GPCR-Tango plasmids[37] in 20 μL DMEM were individually mixed with 400 ng polyethylenimine (Polysciences) in an equal volume of DMEM and incubated for 20 min at room temperature before adding the transfection mixture to the HTLA cells. 16-24 h after transfection, medium was replaced with 180 μL fresh DMEM containing 1% Penicillin/Streptomycin and 10 mM HEPES and 20 μL of 3 or 3-Homo to reach a final concentration of 100 μM. Supernatants were aspirated 20 h after stimulation and 50 μl per well of Bright-Glo solution (Promega) diluted 20-fold with PBS containing 20 mM HEPES was added into each well. After 15 min incubation at room temperature, luminescence was quantified using a Spectramax i3x microplate reader (Molecular Devices). Activation fold for each sample was calculated by dividing relative luminescence units (RLU) for each condition by RLUs from PBS control. […]

GPR115 = biological target: T1, GPR115 (Homo sapiens, UniProt Q8IZF3); test: PRESTO-Tango GPCR screen; conditions: 100 µM
T1 construct: purchased PRESTO-Tango GPCR kit (Roth lab / Addgene)
T1 sequence (Q8IZF3 22-695): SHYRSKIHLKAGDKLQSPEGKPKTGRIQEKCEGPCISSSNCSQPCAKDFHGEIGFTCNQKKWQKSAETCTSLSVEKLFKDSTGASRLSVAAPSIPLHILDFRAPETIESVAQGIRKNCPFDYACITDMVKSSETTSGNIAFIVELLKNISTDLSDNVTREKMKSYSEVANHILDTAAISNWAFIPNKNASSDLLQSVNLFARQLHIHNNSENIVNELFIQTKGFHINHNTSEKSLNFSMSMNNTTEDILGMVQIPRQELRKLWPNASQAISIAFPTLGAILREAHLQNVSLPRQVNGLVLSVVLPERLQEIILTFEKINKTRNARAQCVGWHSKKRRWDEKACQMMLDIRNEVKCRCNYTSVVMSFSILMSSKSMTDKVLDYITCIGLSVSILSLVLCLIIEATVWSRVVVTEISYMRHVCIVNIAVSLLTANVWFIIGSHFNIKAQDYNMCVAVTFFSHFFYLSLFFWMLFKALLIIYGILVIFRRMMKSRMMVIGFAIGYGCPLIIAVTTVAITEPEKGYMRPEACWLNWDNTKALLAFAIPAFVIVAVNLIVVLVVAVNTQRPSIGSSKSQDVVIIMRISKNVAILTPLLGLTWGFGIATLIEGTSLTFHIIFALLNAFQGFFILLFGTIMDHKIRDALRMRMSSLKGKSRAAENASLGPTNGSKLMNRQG
Method: (§1) The PRESTO-Tango analyses were performed as previously published. Briefly, HTLA cells, a HEK293 cell line that stably expresses β-arrestin-TEV and tTA-Luciferase (a kind gift from Gilad Barnea, Brown University), were plated in 96-well tissue culture plates (Eppendorf) in DMEM containing 10% FBS and 1% Penicillin/Streptomycin. One day after plating (after reaching approximately 90% confluence), 200 ng per well GPCR-Tango plasmids[37] in 20 μL DMEM were individually mixed with 400 ng polyethylenimine (Polysciences) in an equal volume of DMEM and incubated for 20 min at room temperature before adding the transfection mixture to the HTLA cells. 16-24 h after transfection, medium was replaced with 180 μL fresh DMEM containing 1% Penicillin/Streptomycin and 10 mM HEPES and 20 μL of 3 or 3-Homo to reach a final concentration of 100 μM. Supernatants were aspirated 20 h after stimulation and 50 μl per well of Bright-Glo solution (Promega) diluted 20-fold with PBS containing 20 mM HEPES was added into each well. After 15 min incubation at room temperature, luminescence was quantified using a Spectramax i3x microplate reader (Molecular Devices). Activation fold for each sample was calculated by dividing relative luminescence units (RLU) for each condition by RLUs from PBS control. Dose response curves of each chemical were performed in a similar way with varying the ligand concentration from 10^−4 M to 10^−15 M.

GPR55 = biological target: T2, GPR55 (Homo sapiens, UniProt Q9Y2T6); test: PRESTO-Tango GPCR screen; conditions: 100 µM
T2 construct: purchased PRESTO-Tango GPCR kit (Roth lab / Addgene)
Method: as §1

NPFF1 = biological target: T3, NPFF1 (Homo sapiens, UniProt Q9GZQ6); test: PRESTO-Tango GPCR screen; conditions: 100 µM
T3 construct: purchased PRESTO-Tango GPCR kit (Roth lab / Addgene)
Method: as §1

P2RY4 = biological target: T4, P2RY4 (Homo sapiens, UniProt P51582); test: PRESTO-Tango GPCR screen; conditions: 100 µM
T4 construct: purchased PRESTO-Tango GPCR kit (Roth lab / Addgene)
Method: as §1

PTAFR = biological target: T5, PTAFR (Homo sapiens, UniProt P25105); test: PRESTO-Tango GPCR screen; conditions: 100 µM
T5 construct: purchased PRESTO-Tango GPCR kit (Roth lab / Addgene)
Method: as §1

MC4R = biological target: T6, MC4R (Homo sapiens, UniProt P32245); test: PRESTO-Tango GPCR screen; conditions: 100 µM
T6 construct: purchased PRESTO-Tango GPCR kit (Roth lab / Addgene)
Method: as §1

VIPR2 = biological target: T7, VIPR2 (Homo sapiens, UniProt P41587); test: PRESTO-Tango GPCR screen; conditions: 100 µM
T7 construct: purchased PRESTO-Tango GPCR kit (Roth lab / Addgene)
Method: as §1

GPR158 = biological target: T8, GPR158 (Homo sapiens, UniProt Q5T848); test: PRESTO-Tango GPCR screen; conditions: 100 µM
T8 construct: purchased PRESTO-Tango GPCR kit (Roth lab / Addgene)
Method: as §1

CNR2 = biological target: T9, CNR2 (Homo sapiens, UniProt P34972); test: PRESTO-Tango GPCR screen; conditions: 100 µM
T9 construct: purchased PRESTO-Tango GPCR kit (Roth lab / Addgene)
Method: as §1

CMKLR1 = biological target: T10, CMKLR1 (Homo sapiens, UniProt Q99788); test: PRESTO-Tango GPCR screen; conditions: 100 µM
T10 construct: purchased PRESTO-Tango GPCR kit (Roth lab / Addgene)
Method: as §1

TAAR2 = biological target: T11, TAAR2 (Homo sapiens, UniProt Q9P1P5); test: PRESTO-Tango GPCR screen; conditions: 100 µM
T11 construct: purchased PRESTO-Tango GPCR kit (Roth lab / Addgene)
T11 sequence (Q9P1P5 whole entry): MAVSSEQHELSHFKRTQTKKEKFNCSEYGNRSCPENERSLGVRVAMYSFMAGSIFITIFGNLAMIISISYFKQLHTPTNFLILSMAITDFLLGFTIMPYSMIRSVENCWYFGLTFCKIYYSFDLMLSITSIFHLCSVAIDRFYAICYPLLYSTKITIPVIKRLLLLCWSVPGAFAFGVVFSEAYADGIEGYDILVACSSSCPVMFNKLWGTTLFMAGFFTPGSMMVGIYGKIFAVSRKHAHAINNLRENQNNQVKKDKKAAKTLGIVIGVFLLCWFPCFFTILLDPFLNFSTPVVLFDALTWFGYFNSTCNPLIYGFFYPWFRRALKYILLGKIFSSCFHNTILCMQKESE
Method: as §1

MC2R = biological target: T12, MC2R (Homo sapiens, UniProt Q01718); test: PRESTO-Tango GPCR screen; conditions: 100 µM
T12 construct: purchased PRESTO-Tango GPCR kit (Roth lab / Addgene)
Method: as §1

HTR2B = biological target: T13, HTR2B (Homo sapiens, UniProt P41595); test: PRESTO-Tango GPCR screen; conditions: 100 µM
T13 construct: purchased PRESTO-Tango GPCR kit (Roth lab / Addgene)
Method: as §1

NTSR1 = biological target: T14, NTSR1 (Homo sapiens, UniProt P30989); test: PRESTO-Tango GPCR screen; conditions: 100 µM
T14 construct: purchased PRESTO-Tango GPCR kit (Roth lab / Addgene)
Method: as §1

ADRB1 = biological target: T15, ADRB1 (Homo sapiens, UniProt P08588); test: PRESTO-Tango GPCR screen; conditions: 100 µM
T15 construct: purchased PRESTO-Tango GPCR kit (Roth lab / Addgene)
T15 sequence (P08588 whole entry): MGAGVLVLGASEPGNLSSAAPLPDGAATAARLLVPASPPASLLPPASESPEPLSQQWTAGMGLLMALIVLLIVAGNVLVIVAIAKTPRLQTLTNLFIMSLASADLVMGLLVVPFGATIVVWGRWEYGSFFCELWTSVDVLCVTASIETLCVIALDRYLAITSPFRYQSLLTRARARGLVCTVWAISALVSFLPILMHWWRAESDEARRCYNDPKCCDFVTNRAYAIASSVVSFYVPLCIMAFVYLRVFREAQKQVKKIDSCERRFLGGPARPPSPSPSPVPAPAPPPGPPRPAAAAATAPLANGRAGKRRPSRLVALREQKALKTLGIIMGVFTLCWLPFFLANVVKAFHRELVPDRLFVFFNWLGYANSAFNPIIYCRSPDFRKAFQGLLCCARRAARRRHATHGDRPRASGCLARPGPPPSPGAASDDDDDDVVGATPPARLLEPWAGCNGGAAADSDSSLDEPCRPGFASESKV
Method: as §1

APJ = biological target: T16, APJ (Homo sapiens, UniProt P35414); test: PRESTO-Tango GPCR screen; conditions: 100 µM
T16 construct: purchased PRESTO-Tango GPCR kit (Roth lab / Addgene)
Method: as §1

EDNRB = biological target: T17, EDNRB (Homo sapiens, UniProt P24530); test: PRESTO-Tango GPCR screen; conditions: 100 µM
T17 construct: purchased PRESTO-Tango GPCR kit (Roth lab / Addgene)
T17 sequence (P24530 27-442): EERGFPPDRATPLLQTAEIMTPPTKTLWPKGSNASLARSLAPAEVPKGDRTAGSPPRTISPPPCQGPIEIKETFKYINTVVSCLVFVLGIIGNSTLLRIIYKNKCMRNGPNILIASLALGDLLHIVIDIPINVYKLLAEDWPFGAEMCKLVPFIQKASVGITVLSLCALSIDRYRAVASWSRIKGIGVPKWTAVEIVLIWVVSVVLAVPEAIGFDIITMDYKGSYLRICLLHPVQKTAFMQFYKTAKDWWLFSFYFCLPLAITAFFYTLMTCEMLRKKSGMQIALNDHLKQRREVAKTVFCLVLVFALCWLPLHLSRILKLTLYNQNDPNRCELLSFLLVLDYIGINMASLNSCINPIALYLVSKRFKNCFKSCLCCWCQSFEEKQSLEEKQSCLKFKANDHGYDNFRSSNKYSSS
Method: as §1

LTB4R = biological target: T18, LTB4R (Homo sapiens, UniProt Q15722); test: PRESTO-Tango GPCR screen; conditions: 100 µM
T18 construct: purchased PRESTO-Tango GPCR kit (Roth lab / Addgene)
T18 sequence (Q15722 whole entry): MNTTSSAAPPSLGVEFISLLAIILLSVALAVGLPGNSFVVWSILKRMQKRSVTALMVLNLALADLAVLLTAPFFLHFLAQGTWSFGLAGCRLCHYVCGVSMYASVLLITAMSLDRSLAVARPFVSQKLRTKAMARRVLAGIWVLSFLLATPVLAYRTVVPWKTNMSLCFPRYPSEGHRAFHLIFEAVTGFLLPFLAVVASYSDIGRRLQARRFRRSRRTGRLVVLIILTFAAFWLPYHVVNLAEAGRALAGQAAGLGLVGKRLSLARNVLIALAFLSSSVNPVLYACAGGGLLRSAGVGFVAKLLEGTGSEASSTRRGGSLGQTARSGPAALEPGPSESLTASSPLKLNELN
Method: as §1

GPR15 = biological target: T19, GPR15 (Homo sapiens, UniProt P49685); test: PRESTO-Tango GPCR screen; conditions: 100 µM
T19 construct: purchased PRESTO-Tango GPCR kit (Roth lab / Addgene)
T19 sequence (P49685 whole entry): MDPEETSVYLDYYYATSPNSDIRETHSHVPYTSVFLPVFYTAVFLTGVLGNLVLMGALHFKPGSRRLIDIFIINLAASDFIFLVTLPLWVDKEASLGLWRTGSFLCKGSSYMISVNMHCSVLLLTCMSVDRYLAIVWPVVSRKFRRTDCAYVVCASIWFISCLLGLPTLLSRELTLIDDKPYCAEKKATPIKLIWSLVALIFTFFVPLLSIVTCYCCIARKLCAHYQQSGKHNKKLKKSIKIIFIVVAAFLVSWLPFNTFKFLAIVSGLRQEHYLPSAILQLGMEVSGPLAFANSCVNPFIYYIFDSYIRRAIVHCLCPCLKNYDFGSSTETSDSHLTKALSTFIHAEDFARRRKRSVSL
Method: as §1

GPR125 = biological target: T20, GPR125 (Homo sapiens, UniProt Q8IWK6); test: PRESTO-Tango GPCR screen; conditions: 100 µM
T20 construct: purchased PRESTO-Tango GPCR kit (Roth lab / Addgene)
Method: as §1

GPR35 = biological target: T21, GPR35 (Homo sapiens, UniProt Q9HC97); test: PRESTO-Tango GPCR screen; conditions: 100 µM
T21 construct: purchased PRESTO-Tango GPCR kit (Roth lab / Addgene)
Method: as §1

ADORA2A = biological target: T22, ADORA2A (Homo sapiens, UniProt P29274); test: PRESTO-Tango GPCR screen; conditions: 100 µM
T22 construct: purchased PRESTO-Tango GPCR kit (Roth lab / Addgene)
Method: as §1

GPR171 = biological target: T23, GPR171 (Homo sapiens, UniProt O14626); test: PRESTO-Tango GPCR screen; conditions: 100 µM
T23 construct: purchased PRESTO-Tango GPCR kit (Roth lab / Addgene)
Method: as §1

NMUR1 = biological target: T24, NMUR1 (Homo sapiens, UniProt Q9HB89); test: PRESTO-Tango GPCR screen; conditions: 100 µM
T24 construct: purchased PRESTO-Tango GPCR kit (Roth lab / Addgene)
T24 sequence (Q9HB89 whole entry): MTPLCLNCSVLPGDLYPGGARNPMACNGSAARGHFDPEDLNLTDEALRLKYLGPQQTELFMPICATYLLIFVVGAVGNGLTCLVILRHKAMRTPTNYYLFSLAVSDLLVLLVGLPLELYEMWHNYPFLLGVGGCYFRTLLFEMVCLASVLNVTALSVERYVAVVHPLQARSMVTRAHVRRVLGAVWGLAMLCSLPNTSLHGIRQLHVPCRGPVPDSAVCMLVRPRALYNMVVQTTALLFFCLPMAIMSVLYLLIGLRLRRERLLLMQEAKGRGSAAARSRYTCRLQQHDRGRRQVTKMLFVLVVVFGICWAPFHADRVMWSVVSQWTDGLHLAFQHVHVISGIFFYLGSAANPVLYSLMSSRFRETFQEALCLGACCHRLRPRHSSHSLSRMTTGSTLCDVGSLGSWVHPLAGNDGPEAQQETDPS
Method: as §1

HTR2A = biological target: T25, HTR2A (Homo sapiens, UniProt P28223); test: PRESTO-Tango GPCR screen; conditions: 100 µM
T25 construct: purchased PRESTO-Tango GPCR kit (Roth lab / Addgene)
T25 sequence (P28223 whole entry): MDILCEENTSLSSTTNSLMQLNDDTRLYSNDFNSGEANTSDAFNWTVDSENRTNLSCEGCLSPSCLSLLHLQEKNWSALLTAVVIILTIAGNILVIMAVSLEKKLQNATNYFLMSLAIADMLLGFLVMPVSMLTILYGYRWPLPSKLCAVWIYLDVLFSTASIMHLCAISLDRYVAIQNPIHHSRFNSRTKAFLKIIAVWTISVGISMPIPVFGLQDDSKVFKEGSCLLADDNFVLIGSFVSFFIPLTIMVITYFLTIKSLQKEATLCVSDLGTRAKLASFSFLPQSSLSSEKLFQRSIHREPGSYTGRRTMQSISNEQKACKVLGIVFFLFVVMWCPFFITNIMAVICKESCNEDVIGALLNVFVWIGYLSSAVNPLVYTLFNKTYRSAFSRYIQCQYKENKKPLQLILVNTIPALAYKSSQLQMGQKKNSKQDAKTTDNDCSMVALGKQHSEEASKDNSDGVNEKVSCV
Method: as §1

GPR153 = biological target: T26, GPR153 (Homo sapiens, UniProt Q6NV75); test: PRESTO-Tango GPCR screen; conditions: 100 µM
T26 construct: purchased PRESTO-Tango GPCR kit (Roth lab / Addgene)
Method: as §1

FFA2 = biological target: T27, FFA2 (Homo sapiens, UniProt O15552); test: PRESTO-Tango GPCR screen; conditions: 100 µM
T27 construct: purchased PRESTO-Tango GPCR kit (Roth lab / Addgene)
Method: as §1

S1PR3 = biological target: T28, S1PR3 (Homo sapiens, UniProt Q99500); test: PRESTO-Tango GPCR screen; conditions: 100 µM
T28 construct: purchased PRESTO-Tango GPCR kit (Roth lab / Addgene)
Method: as §1

GPR152 = biological target: T29, GPR152 (Homo sapiens, UniProt Q8TDT2); test: PRESTO-Tango GPCR screen; conditions: 100 µM
T29 construct: purchased PRESTO-Tango GPCR kit (Roth lab / Addgene)
Method: as §1

GPR50 = biological target: T30, GPR50 (Homo sapiens, UniProt Q13585); test: PRESTO-Tango GPCR screen; conditions: 100 µM
T30 construct: purchased PRESTO-Tango GPCR kit (Roth lab / Addgene)
Method: as §1

GPR25 = biological target: T31, GPR25 (Homo sapiens, UniProt O00155); test: PRESTO-Tango GPCR screen; conditions: 100 µM
T31 construct: purchased PRESTO-Tango GPCR kit (Roth lab / Addgene)
T31 sequence (O00155 whole entry): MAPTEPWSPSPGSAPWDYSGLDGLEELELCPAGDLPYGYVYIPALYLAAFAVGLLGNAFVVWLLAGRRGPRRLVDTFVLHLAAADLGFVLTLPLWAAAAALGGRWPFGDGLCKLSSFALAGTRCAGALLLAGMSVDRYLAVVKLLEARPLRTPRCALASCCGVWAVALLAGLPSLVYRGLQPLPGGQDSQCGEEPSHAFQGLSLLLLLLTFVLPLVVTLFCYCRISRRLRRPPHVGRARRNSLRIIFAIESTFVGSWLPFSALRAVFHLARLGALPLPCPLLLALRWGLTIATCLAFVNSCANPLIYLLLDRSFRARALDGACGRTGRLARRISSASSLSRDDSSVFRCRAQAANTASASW
Method: as §1

NTSR2 = biological target: T32, NTSR2 (Homo sapiens, UniProt O95665); test: PRESTO-Tango GPCR screen; conditions: 100 µM
T32 construct: purchased PRESTO-Tango GPCR kit (Roth lab / Addgene)
T32 sequence (O95665 whole entry): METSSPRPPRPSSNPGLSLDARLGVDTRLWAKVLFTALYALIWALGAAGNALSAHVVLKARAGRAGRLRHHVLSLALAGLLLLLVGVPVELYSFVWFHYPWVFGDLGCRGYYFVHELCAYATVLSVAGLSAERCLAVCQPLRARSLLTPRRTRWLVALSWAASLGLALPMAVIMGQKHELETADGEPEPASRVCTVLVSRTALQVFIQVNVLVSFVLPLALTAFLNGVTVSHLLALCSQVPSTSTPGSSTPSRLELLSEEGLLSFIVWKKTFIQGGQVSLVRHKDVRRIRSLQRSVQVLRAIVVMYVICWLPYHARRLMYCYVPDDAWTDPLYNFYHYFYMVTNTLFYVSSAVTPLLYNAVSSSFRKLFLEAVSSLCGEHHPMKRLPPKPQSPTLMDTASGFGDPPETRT
Method: as §1

GPR26 = biological target: T33, GPR26 (Homo sapiens, UniProt Q8NDV2); test: PRESTO-Tango GPCR screen; conditions: 100 µM
T33 construct: purchased PRESTO-Tango GPCR kit (Roth lab / Addgene)
Method: as §1

P2RY1 = biological target: T34, P2RY1 (Homo sapiens, UniProt P47900); test: PRESTO-Tango GPCR screen; conditions: 100 µM
T34 construct: purchased PRESTO-Tango GPCR kit (Roth lab / Addgene)
T34 sequence (P47900 whole entry): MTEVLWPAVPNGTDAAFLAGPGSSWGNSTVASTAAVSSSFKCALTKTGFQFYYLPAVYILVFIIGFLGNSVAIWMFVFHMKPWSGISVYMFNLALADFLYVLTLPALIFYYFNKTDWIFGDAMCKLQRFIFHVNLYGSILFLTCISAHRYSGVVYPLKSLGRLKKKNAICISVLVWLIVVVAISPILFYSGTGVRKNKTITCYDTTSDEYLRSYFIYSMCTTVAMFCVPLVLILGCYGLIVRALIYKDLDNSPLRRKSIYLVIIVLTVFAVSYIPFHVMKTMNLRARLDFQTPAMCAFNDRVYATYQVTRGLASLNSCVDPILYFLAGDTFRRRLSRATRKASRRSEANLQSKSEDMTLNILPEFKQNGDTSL
Method: as §1

Row | SMILES | selectivity across the GPCR panel [1] | GPCR activation (heatmap value) (GPR115) | GPCR activation (heatmap value) (GPR55) | GPCR activation (heatmap value) (NPFF1) | GPCR activation (heatmap value) (P2RY4) | GPCR activation (heatmap value) (PTAFR) | GPCR activation (heatmap value) (MC4R) | GPCR activation (heatmap value) (VIPR2) | GPCR activation (heatmap value) (GPR158) | GPCR activation (heatmap value) (CNR2) | GPCR activation (heatmap value) (CMKLR1) | GPCR activation (heatmap value) (TAAR2) | GPCR activation (heatmap value) (MC2R) | GPCR activation (heatmap value) (HTR2B) | GPCR activation (heatmap value) (NTSR1) | GPCR activation (heatmap value) (ADRB1) | GPCR activation (heatmap value) (APJ) | GPCR activation (heatmap value) (EDNRB) | GPCR activation (heatmap value) (LTB4R) | GPCR activation (heatmap value) (GPR15) | other results
1 | CC(C)Cc1ncc(CCCCNC(=N)N)[nH]c1=O [3-Homo] | selective agonists for histamine receptor H4 | -0.2915 | -0.519 | -0.4803 | 0.7408 | -0.1375 | -0.9791 | 0.5382 | -0.4311 | 0.8114 | -1.034 | 0.3187 | -0.5707 | -0.5052 | 0.1673 | 0.6163 | 0.4932 | -0.6292 | 0.1103 | -0.3204 | GPCR activation (heatmap value) (GPR125): -0.2637; GPCR activation (heatmap value) (GPR35): 0.1027; GPCR activation (heatmap value) (ADORA2A): 0.2086; GPCR activation (heatmap value) (GPR171): -0.9424; GPCR activation (heatmap value) (NMUR1): 0.8213; GPCR activation (heatmap value) (HTR2A): -0.1726; GPCR activation (heatmap value) (GPR153): -0.4672; GPCR activation (heatmap value) (FFA2): -0.3322; GPCR activation (heatmap value) (S1PR3): -0.09323; GPCR activation (heatmap value) (GPR152): -0.3396; GPCR activation (heatmap value) (GPR50): 0.1425; GPCR activation (heatmap value) (GPR25): -0.6766; GPCR activation (heatmap value) (NTSR2): -0.1953; GPCR activation (heatmap value) (GPR26): -1.573; GPCR activation (heatmap value) (P2RY1): 0.7917
2 | CC(C)Cc1ncc(CCCNC(=N)N)[nH]c1=O [compound 3] | selective agonists for histamine receptor H4 | 0.3053 | 0.5927 | 0.7283 | 0.7544 | -0.05027 | 0.1054 | -0.5721 | -0.2474 | -0.04866 | 0.8088 | 0.1553 | 0.1631 | -0.6262 | -0.1053 | 0.4729 | 0.6044 | 0.7397 | -0.07274 | -0.8181 | GPCR activation (heatmap value) (GPR125): 0.4657; GPCR activation (heatmap value) (GPR35): -0.5823; GPCR activation (heatmap value) (ADORA2A): 0.347; GPCR activation (heatmap value) (GPR171): 0.9197; GPCR activation (heatmap value) (NMUR1): -0.191; GPCR activation (heatmap value) (HTR2A): -0.2048; GPCR activation (heatmap value) (GPR153): 0.1913; GPCR activation (heatmap value) (FFA2): -0.009625; GPCR activation (heatmap value) (S1PR3): -0.834; GPCR activation (heatmap value) (GPR152): -1.289; GPCR activation (heatmap value) (GPR50): 0.1425; GPCR activation (heatmap value) (GPR25): -0.8885; GPCR activation (heatmap value) (NTSR2): -2.304; GPCR activation (heatmap value) (GPR26): 2.339; GPCR activation (heatmap value) (P2RY1): 0.6628
